# Experimental data published in patent US20030153009A1, “Method for influencing kinase activity with AG879” (priority 2002, published 2003).
# What was measured:
# PAK1 [1] = settings: cited from earlier work
# [2] = test system: RAS transformation of cells; settings: in vitro and in vivo (b6); malignant transformation of cells (b7); cited from earlier work
# BTK = BTK (Homo sapiens, UniProt Q06187); assay: In vitro kinase assay, TEC family member BTK; assay type: biochemical; settings: concentration as high as 10 μM
# Sequence of BTK (Q06187 whole entry, species assumed): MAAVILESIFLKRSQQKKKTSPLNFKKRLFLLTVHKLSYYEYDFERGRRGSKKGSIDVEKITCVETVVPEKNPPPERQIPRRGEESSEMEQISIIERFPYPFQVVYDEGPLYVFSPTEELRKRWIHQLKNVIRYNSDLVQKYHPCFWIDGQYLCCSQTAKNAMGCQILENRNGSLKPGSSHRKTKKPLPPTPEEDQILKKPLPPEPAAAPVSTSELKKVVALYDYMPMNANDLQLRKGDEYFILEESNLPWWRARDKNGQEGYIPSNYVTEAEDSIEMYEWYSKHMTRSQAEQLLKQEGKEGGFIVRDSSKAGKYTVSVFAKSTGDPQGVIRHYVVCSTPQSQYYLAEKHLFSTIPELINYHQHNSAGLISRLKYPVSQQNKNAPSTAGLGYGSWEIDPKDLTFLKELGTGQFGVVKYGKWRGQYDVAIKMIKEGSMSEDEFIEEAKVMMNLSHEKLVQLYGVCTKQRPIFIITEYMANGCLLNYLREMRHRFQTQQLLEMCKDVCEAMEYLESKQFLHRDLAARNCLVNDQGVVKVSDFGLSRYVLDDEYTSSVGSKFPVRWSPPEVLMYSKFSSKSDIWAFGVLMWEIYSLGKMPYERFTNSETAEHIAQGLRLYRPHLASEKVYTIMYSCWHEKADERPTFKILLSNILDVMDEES
# ETK-PAK1 association = target: T1, ETK-PAK1 association (Mus musculus, UniProt P97504); assay: ETK-PAK1 association in AG879-treated RAS cells; assay type: cell-based; settings: 10 nM
# T1 construct: RAS cells were again lysed and immunoprecipitated with an anti-ETK antibody; endogenous in cells; host or cells: RAS cells (v-Ha-RAS transformed NIH 3T3 fibroblasts)
# T1 sequence (P97504 1-651): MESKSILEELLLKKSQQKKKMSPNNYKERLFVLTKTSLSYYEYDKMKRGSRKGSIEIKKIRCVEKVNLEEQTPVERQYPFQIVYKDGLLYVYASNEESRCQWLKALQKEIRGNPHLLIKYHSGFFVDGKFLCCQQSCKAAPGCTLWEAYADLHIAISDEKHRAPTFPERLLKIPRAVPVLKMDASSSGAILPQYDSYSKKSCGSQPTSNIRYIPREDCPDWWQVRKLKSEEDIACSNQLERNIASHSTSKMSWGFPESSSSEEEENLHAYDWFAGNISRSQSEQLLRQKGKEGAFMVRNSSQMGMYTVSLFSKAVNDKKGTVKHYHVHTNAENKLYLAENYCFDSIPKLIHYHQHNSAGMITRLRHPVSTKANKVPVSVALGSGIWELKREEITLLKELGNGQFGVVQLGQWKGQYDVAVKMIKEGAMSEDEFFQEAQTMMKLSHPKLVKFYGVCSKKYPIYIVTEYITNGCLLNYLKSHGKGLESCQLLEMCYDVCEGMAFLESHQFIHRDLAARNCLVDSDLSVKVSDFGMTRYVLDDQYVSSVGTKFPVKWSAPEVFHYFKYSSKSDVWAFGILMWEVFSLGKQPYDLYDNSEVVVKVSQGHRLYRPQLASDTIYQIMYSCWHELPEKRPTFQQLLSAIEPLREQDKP
# Procedure: (§1) Experiments were designed to determine if AG879 affected the Tyr activity of ETK. To do so, serum starved RAS cells were treated, with varying concentrations of AG879 for 1 hour. Cell lysates were prepared using, as lysis buffer, 20 mM Tris-HCl (pH 7.5), 100 mM NaCl, 10% glycerol, 1% Nonidet P-40, 10 mM NaF, 100 μM NaVO3, 1 mM phenylmethylsulfonyl fluoride, and 100 units/ml of aprotonin. Lysates were treated either with a rabbit, anti-ETK antibody, as an anti-phospo Tyr antibody, to immunoprecipitate the enzyme, and an ETK kinase assay was performed, in accordance with Chen, et. al., Nat. Cell Biol. 3:439-444 (2001); and Bagheri-Yarmand, et. al., supra, both of which are incorporated by reference. Endogenous PAK1, associated with ETK was used as a substrate, in either the absence, or varying concentrations of AG879.
# TEC = target: T2, TEC (Homo sapiens, UniProt P42680); assay: In vitro kinase assay, TEC family member TEC; assay type: biochemical; settings: concentration as high as 10 μM
# T2 sequence (P42680 1-631): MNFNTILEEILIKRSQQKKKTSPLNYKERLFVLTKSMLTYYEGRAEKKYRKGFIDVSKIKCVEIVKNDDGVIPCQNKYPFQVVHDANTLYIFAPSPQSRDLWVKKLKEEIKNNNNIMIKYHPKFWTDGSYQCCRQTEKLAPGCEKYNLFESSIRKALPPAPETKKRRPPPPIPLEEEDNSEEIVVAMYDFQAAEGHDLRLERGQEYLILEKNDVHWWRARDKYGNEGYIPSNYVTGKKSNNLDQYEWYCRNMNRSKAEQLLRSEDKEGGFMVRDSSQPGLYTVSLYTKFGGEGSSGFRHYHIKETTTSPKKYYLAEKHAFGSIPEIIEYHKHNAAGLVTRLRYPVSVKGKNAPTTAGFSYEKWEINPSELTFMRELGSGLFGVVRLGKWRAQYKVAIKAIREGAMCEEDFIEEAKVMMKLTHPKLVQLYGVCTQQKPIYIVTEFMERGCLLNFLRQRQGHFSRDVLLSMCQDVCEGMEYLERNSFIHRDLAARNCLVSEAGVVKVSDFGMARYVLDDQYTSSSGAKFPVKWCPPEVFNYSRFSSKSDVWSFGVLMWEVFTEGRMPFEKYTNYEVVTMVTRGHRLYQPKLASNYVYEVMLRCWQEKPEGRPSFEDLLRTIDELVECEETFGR
# GST-PAK1 = GST-PAK1 (Homo sapiens, UniProt Q13153); assay: Kinase assay with fusion protein GST-PAK1; assay type: biochemical; settings: even at 10 μM
# Sequence of GST-PAK1 (Q13153 whole entry, the tested form may be a part): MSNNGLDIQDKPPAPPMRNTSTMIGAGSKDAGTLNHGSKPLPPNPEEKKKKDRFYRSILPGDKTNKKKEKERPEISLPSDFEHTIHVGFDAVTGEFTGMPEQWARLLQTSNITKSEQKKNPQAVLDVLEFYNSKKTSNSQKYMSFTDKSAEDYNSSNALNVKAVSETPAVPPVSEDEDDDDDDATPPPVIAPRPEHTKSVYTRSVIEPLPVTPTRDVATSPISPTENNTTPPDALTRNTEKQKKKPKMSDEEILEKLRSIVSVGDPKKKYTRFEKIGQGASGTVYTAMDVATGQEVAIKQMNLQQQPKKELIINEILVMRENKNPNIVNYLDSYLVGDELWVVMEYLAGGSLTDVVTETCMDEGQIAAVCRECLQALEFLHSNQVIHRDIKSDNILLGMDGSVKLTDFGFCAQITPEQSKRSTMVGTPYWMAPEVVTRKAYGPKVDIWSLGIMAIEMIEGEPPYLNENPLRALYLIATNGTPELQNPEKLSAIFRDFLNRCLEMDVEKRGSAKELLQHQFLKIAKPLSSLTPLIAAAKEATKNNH
# Procedure: In follow up experiments a fusion protein “GST-PAK1” was prepared, and tested in the same way.
# ETK [3] = target: T3, ETK (Mus musculus, UniProt P97504); assay: In vitro kinase assay with ETK immunoprecipitated from RAS cells; assay type: biochemical; design: RAS cells were again lysed and immunoprecipitated with an anti-ETK antibody; endogenous in cells; host or cells: RAS cells (v-Ha-RAS transformed NIH 3T3 fibroblasts)
# T3 sequence (P97504 1-651): T1 sequence (P97504 1-651)
# Procedure: These experiments were designed to determined how AG879 inhibited ETK activity, i.e., was the inhibition direct, or indirect? To test this, RAS cells were again lysed and immunoprecipitated with an anti-ETK antibody, as described supra. Following this, the immunoprecipitates were used in an in vitro kinase assay, using no, or varying concentrations, of AG879 (0.001-10 μM), as described supra. Two, independent experiments, were carried out.
# FAK-PAK1 interaction = FAK-PAK1 interaction in RAS cells; assay type: cell-based; settings: 10 nM
# Text: (§2) In order to determine this, RAS cells were again serum starved, lysed, and immunoprecipitated using an anti-FAK antibody. The precipitates were then blotted, using either anti-phospo Tyr, anti-ETK, or anti-PAK1 antibodies, separately.
# FAK = target: T4, FAK (Mus musculus, UniProt P34152); assay: Tyr phosphorylation of FAK in RAS cells (anti-FAK immunoprecipitation, blot); assay type: cell-based
# T4 construct: RAS cells were again serum starved, lysed, and immunoprecipitated using an anti-FAK antibody; endogenous in cells; host or cells: RAS cells (v-Ha-RAS transformed NIH 3T3 fibroblasts)
# T4 sequence (P34152 whole entry): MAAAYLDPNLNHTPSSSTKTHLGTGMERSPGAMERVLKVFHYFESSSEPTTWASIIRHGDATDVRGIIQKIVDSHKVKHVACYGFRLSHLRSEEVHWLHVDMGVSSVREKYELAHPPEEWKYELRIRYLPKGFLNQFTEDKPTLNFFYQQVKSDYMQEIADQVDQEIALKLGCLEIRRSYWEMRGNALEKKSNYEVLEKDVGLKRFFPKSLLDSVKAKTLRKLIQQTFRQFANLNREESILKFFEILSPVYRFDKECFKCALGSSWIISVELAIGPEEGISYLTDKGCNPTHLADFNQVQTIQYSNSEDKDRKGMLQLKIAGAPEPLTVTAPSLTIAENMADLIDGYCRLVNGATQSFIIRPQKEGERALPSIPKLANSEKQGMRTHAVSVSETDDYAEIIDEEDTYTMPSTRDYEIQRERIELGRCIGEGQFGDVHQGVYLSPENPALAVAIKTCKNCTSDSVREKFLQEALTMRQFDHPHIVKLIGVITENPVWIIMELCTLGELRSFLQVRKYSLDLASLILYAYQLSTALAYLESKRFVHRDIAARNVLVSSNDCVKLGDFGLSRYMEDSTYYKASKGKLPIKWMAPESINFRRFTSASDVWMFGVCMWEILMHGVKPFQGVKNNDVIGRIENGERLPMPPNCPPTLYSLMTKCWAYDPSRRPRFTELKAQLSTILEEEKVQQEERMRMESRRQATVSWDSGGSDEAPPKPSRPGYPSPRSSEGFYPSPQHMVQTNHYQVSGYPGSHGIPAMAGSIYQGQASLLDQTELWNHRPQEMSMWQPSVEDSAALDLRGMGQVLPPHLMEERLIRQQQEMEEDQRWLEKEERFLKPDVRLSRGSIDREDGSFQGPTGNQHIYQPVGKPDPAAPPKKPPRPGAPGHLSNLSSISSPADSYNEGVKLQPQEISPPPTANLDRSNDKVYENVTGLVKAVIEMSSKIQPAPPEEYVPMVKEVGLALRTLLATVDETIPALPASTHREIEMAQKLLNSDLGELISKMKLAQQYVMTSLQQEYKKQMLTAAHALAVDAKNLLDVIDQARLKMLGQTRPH
# Text: as §2
# ErbB2 = ErbB2 (Homo sapiens, UniProt P04626); settings: cited from earlier work
# FLK-1 = settings: cited from earlier work
# RAS induced sarcomas = settings: nude mouse model; cited from earlier work
# PAK1 [4] = assay: PAK kinase assay on PAK1 immunoprecipitated from AG879-treated RAS cells; assay type: cell-based; settings: RAS cells serum starved, AG879 0.01-10 μM for 1 hour; all concentrations tested
# Procedure: RAS cells, which are NIH 3T3 fibroblasts transformed with v-Ha-RAS, were serum starved, overnight, and were then incubated with varying concentrations of AG879 (0.01-10 μM), for 1 hour. Following the hour of culture, the cells were lysed in lysis buffer (40 mM HEPES, pH 7.4, 1% Nonidet P-40, 1 mM EDTA, 100 mM NaCl, 25 mM NaF, 100 μM NaVO3, 1 MM phenylmethyl sulfonyl fluoride, and 100 units/ml aprotonin). Lysates were tested, via Bradford assay, to determine protein content, and those containing 1 mg of protein were admixed with an anti-PAK1 antibody to immunoprecipitate proteins.
# Once the proteins were immunoprecipitated, they were analyzed in a PAK kinase assay, as described by Tang, et. al., Mol. Cell Biol 17: 4454-4464 (1997); He, et. al., Cancer J. 7:191-202 (2001), He, et. al., Cancer J 6:243-248 (2000); Obemeier, et. al., EMBO J 17:4328-4339 (1998), all of which are incorporated by reference.
# PAK1 [5] = assay: Tyr phosphorylation of PAK1 in AG879-treated RAS cells; assay type: cell-based; settings: 10 nM
# Procedure: as §1
# FAK-ETK interaction = target: T5, FAK-ETK interaction (Mus musculus, UniProt P97504); assay: FAK association with ETK in RAS cells; assay type: cell-based
# T5 construct: blotted, using either anti-phospo Tyr, anti-ETK, or anti-PAK1 antibodies; endogenous in cells; host or cells: RAS cells (v-Ha-RAS transformed NIH 3T3 fibroblasts)
# T5 sequence (P97504 1-651): T1 sequence (P97504 1-651)
# Text: as §2
# [6] = test system: RAS cells (NIH 3T3 fibroblasts transformed with v-Ha-RAS); assay: Colony formation of RAS cells in 0.35% top agar, 3 weeks; assay type: cell-based; settings: colonies containing more than 100 cells, average of two experiments, read-out: IC50 for large colony formation
# Text: After three weeks, the colonies were stained, and counted, using standard methods. The control used was non-treated cells, plated into the same type of medium.
# ETK [7] = target: T3, ETK; assay: Tyrosine phosphorylation of ETK in AG879-treated RAS cells (immunoprecipitation); assay type: cell-based; design: endogenous in cells; host or cells: RAS cells (v-Ha-RAS transformed NIH 3T3 fibroblasts); settings: 1 hour
# Procedure: as §1
# ITK = target: T6, ITK (Homo sapiens, UniProt Q08881); assay: In vitro kinase assay, TEC family member ITK; assay type: biochemical; settings: concentration as high as 10 μM
# T6 sequence (Q08881 1-620): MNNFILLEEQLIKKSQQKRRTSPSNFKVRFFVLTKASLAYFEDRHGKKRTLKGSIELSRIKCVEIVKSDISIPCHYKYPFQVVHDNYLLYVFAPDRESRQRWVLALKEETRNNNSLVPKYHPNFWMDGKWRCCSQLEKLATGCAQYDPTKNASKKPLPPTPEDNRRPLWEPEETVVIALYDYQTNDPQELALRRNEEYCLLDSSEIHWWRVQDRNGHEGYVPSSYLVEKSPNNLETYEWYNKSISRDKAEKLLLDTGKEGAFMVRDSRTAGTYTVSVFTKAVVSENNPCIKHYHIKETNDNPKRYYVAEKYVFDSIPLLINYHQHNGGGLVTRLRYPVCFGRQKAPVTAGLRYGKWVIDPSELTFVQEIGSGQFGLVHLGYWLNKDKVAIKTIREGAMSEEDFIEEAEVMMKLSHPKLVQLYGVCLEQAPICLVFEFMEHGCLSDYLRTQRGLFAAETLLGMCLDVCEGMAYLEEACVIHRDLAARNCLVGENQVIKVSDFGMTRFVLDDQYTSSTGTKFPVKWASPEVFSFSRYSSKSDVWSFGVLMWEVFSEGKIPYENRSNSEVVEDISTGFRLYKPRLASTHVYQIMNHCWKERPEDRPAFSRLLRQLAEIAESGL
# RAS cells = assay: Anchorage dependent growth, follow up experiments; assay type: cell-based; settings: as much as 1 μM
# Text: The experiments which follow were designed to address this question.
compound,measurement,setting,value
Cc1ccc(-c2nn(C(C)(C)C)c3ncnc(N)c23)cc1 [PP1],RAS induced PAK1 activation,PAK1 [1],block
same,RAS induced transformation,[2],block
COc1cc2ncnc(Nc3cccc(Cl)c3)c2cc1OC [AG1478],RAS induced PAK1 activation,PAK1 [1],block
same,RAS induced transformation,[2],block
COc1cc(/C=C(\C#N)C(N)=O)cc(CSc2nc3ccccc3s2)c1O [AG825],RAS induced PAK1 activation,PAK1 [1],block
same,IC50,"PAK1 [1]; read-out: IC50, block of RAS induced activation of PAK1 and malignant transformation",~350 nM
same,RAS induced transformation,[2],block
AG879,inhibitory effect on BTK,BTK,no inhibitory effect
same,ETK-PAK1 association,ETK-PAK1 association,suppress
same,inhibitory effect on TEC,TEC,no inhibitory effect
same,inhibition of kinase properties of GST-PAK1,GST-PAK1,did not inhibit
same,Tyr phosphorylation of ETK,"ETK [3]; 10 nM, ETK immunoprecipitate",inhibited
same,Tyr phosphorylation of PAK1 by ETK,"ETK [3]; 10 nM, ETK immunoprecipitate",inhibited
same,IC50,"ETK [3]; AG879 0.001-10 μM, two independent experiments",~5 nM
same,FAK-PAK1 interaction,FAK-PAK1 interaction,inhibit
same,Tyr phosphorylation of FAK,FAK; 10 nM,not at the lower concentration
same,Tyr phosphorylation of FAK,FAK; 100 nM,suppressed
same,ErbB2 inhibition,ErbB2,inhibitor
same,FLK-1 inhibition,FLK-1,inhibitor
same,growth of RAS induced sarcomas in vivo,RAS induced sarcomas,suppressed
same,PAK1 kinase activity,PAK1 [4],blocked quite strongly
same,Tyr phosphorylation of PAK1,PAK1 [5],reduced
same,FAK association with ETK,FAK-ETK interaction; 10 nM,not at the lower concentration
same,FAK association with ETK,FAK-ETK interaction; 100 nM,suppressed
same,IC50,[6],~10 nM
same,tyrosine phosphorylation of ETK,ETK [7]; 10 nM,inhibited
same,level of the ETK protein,ETK [7],did not affect
same,inhibitory effect on ITK,ITK,no inhibitory effect
same,effect on anchorage dependent growth,RAS cells,did not effect
